Experimental data: ChEMBL document CHEMBL1201862, “PubChem BioAssay data set” (2004)
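All cell lines were grown in 96-well plates and treated with compound for 48 hours. The concentration for 50% growth inhibition is given as GI50.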 The source made the active and inactive calls. Rule as the data show it: active = GI50 up to about 1.1 µM and inactive = higher.

Columns and labels:
Assay in all cases: NCI anticancer screen, dose series, 48 h
A549 = test system: A549
M14 = test system: M14
IGROV-1 = test system: IGROV-1
NCI-H460 = test system: NCI-H460
NCI-H226 = test system: NCI-H226
HCT-116 = test system: HCT-116
OVCAR-8 = test system: OVCAR-8
SK-OV-3 = test system: SK-OV-3
HOP-62 = test system: HOP-62
KM12 = test system: KM12
SNB-75 = test system: SNB-75
NCI-H23 = test system: NCI-H23
OVCAR-3 = test system: OVCAR-3
CCRF-CEM = test system: CCRF-CEM
OVCAR-5 = test system: OVCAR-5
SNB-19 = test system: SNB-19
HCT-15 = test system: HCT-15
CAKI-1 = test system: CAKI-1
Hs-578T = test system: Hs-578T
LXFL 529 = test system: LXFL 529

SMILES	GI50 (A549)	GI50 (M14)	GI50 (IGROV-1)	GI50 (NCI-H460)	GI50 (NCI-H226)	GI50 (HCT-116)	GI50 (OVCAR-8)	GI50 (SK-OV-3)	GI50 (HOP-62)	GI50 (KM12)	GI50 (SNB-75)	GI50 (NCI-H23)	GI50 (OVCAR-3)	GI50 (CCRF-CEM)	GI50 (OVCAR-5)	GI50 (SNB-19)	GI50 (HCT-15) [µM]	GI50 (CAKI-1)	GI50 (Hs-578T)	GI50 (LXFL 529)
O=C1c2ccccc2C2(c3ccc(F)cc3)NCCN12 (stereo not drawn)	> 100 µM (inactive)	> 100 µM (inactive)	> 100 µM (inactive)	> 100 µM (inactive)	> 100 µM (inactive)	> 100 µM (inactive)	> 100 µM (inactive)	> 100 µM (inactive)	> 100 µM (inactive)	> 100 µM (inactive)	> 100 µM (inactive)	> 100 µM (inactive)	> 100 µM (inactive)	> 100 µM (inactive)	> 100 µM (inactive)	> 100 µM (inactive)	> 100	> 100 µM (inactive)	> 100 µM (inactive)	–
Cc1cc(C)nc(NS(=O)(=O)c2ccc(Nc3c4ccccc4nc4c(C(=O)Nc5ccc(S(=O)(=O)Nc6cc(C)on6)cc5)ccc(Cl)c34)cc2)n1	–	20.1 µM (inactive)	–	22 µM (inactive)	–	17.7 µM (inactive)	26.4 µM (inactive)	69.7 µM (inactive)	21.5 µM (inactive)	17.3 µM (inactive)	31.7 µM (inactive)	20.3 µM (inactive)	17 µM (inactive)	21.8 µM (inactive)	18.7 µM (inactive)	22.4 µM (inactive)	28.9	–	–	18.5 µM (inactive)
Clc1ccc(C2SCc3nc4ccccc4n32)c(Cl)c1 (stereo not drawn)	14.5 µM (inactive)	14.4 µM (inactive)	15.5 µM (inactive)	16.6 µM (inactive)	14.8 µM (inactive)	14 µM (inactive)	16.9 µM (inactive)	25.8 µM (inactive)	14 µM (inactive)	14.7 µM (inactive)	19.3 µM (inactive)	11.3 µM (inactive)	14.1 µM (inactive)	12.6 µM (inactive)	16.2 µM (inactive)	18 µM (inactive)	15.6	–	–	11.9 µM (inactive)
CC1CC2OC(=O)C(C)C2CC2(C)C(OC3OC(CO)C(O)C(O)C3O)OCCC12 (stereo not drawn)	> 100 µM (inactive)	> 100 µM (inactive)	> 100 µM (inactive)	> 100 µM (inactive)	> 100 µM (inactive)	> 100 µM (inactive)	> 100 µM (inactive)	> 100 µM (inactive)	> 100 µM (inactive)	> 100 µM (inactive)	> 100 µM (inactive)	> 100 µM (inactive)	> 100 µM (inactive)	> 100 µM (inactive)	> 100 µM (inactive)	> 100 µM (inactive)	> 100	> 100 µM (inactive)	> 100 µM (inactive)	–
CCOC1=C2N=C(Cc3ccccc3F)N=C2C(=O)c2ccccc21	> 100 µM (inactive)	> 100 µM (inactive)	–	> 100 µM (inactive)	> 100 µM (inactive)	> 100 µM (inactive)	> 100 µM (inactive)	–	> 100 µM (inactive)	> 100 µM (inactive)	90.8 µM (inactive)	> 100 µM (inactive)	> 100 µM (inactive)	> 100 µM (inactive)	–	> 100 µM (inactive)	> 100	> 100 µM (inactive)	–	> 100 µM (inactive)
Cn1nc(-c2ccccc2)c2c(-c3ccccc3)c3cc(Cl)ccc3nc21	> 100 µM (inactive)	> 100 µM (inactive)	> 100 µM (inactive)	75.7 µM (inactive)	> 100 µM (inactive)	41.3 µM (inactive)	> 100 µM (inactive)	> 100 µM (inactive)	> 100 µM (inactive)	> 100 µM (inactive)	> 100 µM (inactive)	> 100 µM (inactive)	> 100 µM (inactive)	0.0311 µM (active)	> 100 µM (inactive)	> 100 µM (inactive)	12.7	> 100 µM (inactive)	> 76.4 µM (inactive)	–
N#Cc1ccc(-n2c3ccccc3c3ccc4c(c32)C(=O)C=CC4=O)cc1	16.9 µM (inactive)	2.68 µM (inactive)	5.25 µM (inactive)	21.6 µM (inactive)	24.3 µM (inactive)	2.42 µM (inactive)	3.66 µM (inactive)	13.8 µM (inactive)	15.3 µM (inactive)	10.2 µM (inactive)	18.2 µM (inactive)	6.89 µM (inactive)	3.27 µM (inactive)	0.409 µM (active)	17.8 µM (inactive)	10.1 µM (inactive)	4.49	1.38 µM (inactive)	4.16 µM (inactive)	–
CCc1ccc(Cc2ccc(CC)c(NC(=O)C(=O)Cc3nc4ccccc4nc3C)c2CC)c(CC)c1NC(=O)C(=O)Cc1nc2ccccc2nc1C	> 100 µM (inactive)	> 100 µM (inactive)	> 100 µM (inactive)	> 100 µM (inactive)	–	52.5 µM (inactive)	> 100 µM (inactive)	> 100 µM (inactive)	> 100 µM (inactive)	> 100 µM (inactive)	9.77 µM (inactive)	> 100 µM (inactive)	15 µM (inactive)	42.7 µM (inactive)	> 100 µM (inactive)	45.1 µM (inactive)	> 100	25.4 µM (inactive)	–	54.1 µM (inactive)
